From patent publication US7880006B2, “Quinoline derivatives and insecticide comprising thereof as active ingredient” (Meiji Seika Kaisha, Ltd., priority 2004, dated 2011)

Assays:
Tetranychus cinnabarinus = experiment: Miticidal effect against Tetranychus cinnabarinus (kidney leaf disk, eggs/larvae/nymphs); format: in vivo; details: Concentration 500 ppm; method of Test Example 4
Method: Miticidal Effect Against Tetranychus cinnabarinus
A kidney leaf disk having a diameter of 2 cm was placed on agar. Seven female adult mites of Tetranychus cinnabarinus were released on the kidney leaf disk. The female adult mites were allowed to oviposit in a chamber kept at a constant temperature (25° C.) for 24 hr. The female adult mites were then removed from the kidney leaf disk. Test compounds, which had been diluted to designated concentrations by the addition of a 50% aqueous acetone solution (Tween 20, 0.05%), were spread over the leaf disk by means of a spray gun, and the leaf disk was then air dried. Thereafter, the leaf disk was stored in a constant-temperature chamber of 25° C. […] The sum of the unhatching rate of eggs and the death rate of larva ticks/nymphs was determined as the total death rate.

Spodoptera litura = experiment: Pesticidal effect against Spodoptera litura (cabbage leaf disk spray); format: in vivo; details: Concentration 200 ppm; method of Test Example 2
Source text: Pesticidal Effect Against Spodoptera litura
(§1) A cabbage leaf disk having a diameter of 5 cm was placed in a plastic cup. Test compounds, which had been diluted to designated concentrations by the addition of a 50% aqueous acetone solution (Tween 20, 0.05%), were spread over the cabbage leaf disk by means of a spray gun, and the cabbage leaf disk was then air dried. Five larvae at the third instar of Spodoptera litura were released in the cup. The cup was then lidded, and the larvae were reared in a chamber at a constant temperature (25° C.).

Myzus persicae = experiment: Pesticidal effect against Myzus persicae (cabbage leaf disk spray); format: in vivo; details: Concentration 500 ppm; method of Test Example 3
Source text: Pesticidal Effect Against Myzus persicae
A cabbage leaf disk having a diameter of 2.8 cm was placed in a plastic schale. Test compounds, which had been diluted to designated concentrations by the addition of a 50% aqueous acetone solution (Tween 20, 0.05%), were spread over the cabbage leaf disk by means of a spray gun, and the cabbage leaf disk was then air dried. Thereafter, ten larvae at the first instar of Myzus persicae were released in the schale. The schale was then lidded, and the larvae were reared in a chamber at a constant temperature (25° C.).

Plutella xylostella = experiment: Pesticidal effect against Plutella xylostella (cabbage leaf disk spray); format: in vivo; details: Concentration 200 ppm; method of Test Example 1
Source text: Pesticidal Effect Against Plutella xylostella
as §1, with “second” for “third”, “Plutella xylostella” for “Spodoptera litura”

Laodel phax striatellus = experiment: Control effect against Laodel phax striatellus (rice seedling spray); format: in vivo; details: Concentration 500 ppm; method of Test Example 5
Source text: Control Effect Against Laodel phax striatellus
Test compounds, which had been diluted to designated concentrations by the addition of a 50% aqueous acetone solution (Tween 20, 0.05%), were spread over four rice seedlings (7 days after sowing) sowed in a plastic pot by means of a spray gun, followed by air drying. Thereafter, this pot was covered by a plastic cylinder, and ten larvae at the second instar of Laodel phax striatellus were released in the pot. The pot was then lidded, and the larvae were reared in a chamber at a constant temperature (25° C.).

Compound | melting point [°C] | Death rate, % Tetranychus cinnabarinus (Tetranychus cinnabarinus) [%] | Death rate, % Spodoptera litura (Spodoptera litura) [%] | Death rate, % Myzus persicae (Myzus persicae) [%] | Death rate, % Plutella xylostella (Plutella xylostella) [%] | Death rate, % Laodelphax striatellus (Laodel phax striatellus) [%]
CC(=O)Oc1c(C)c(C)nc2ccc(Oc3ccc(Cl)cc3)c(Cl)c12 [Compound No. 2, 4-Acetoxy-5-chloro-6-(4-chlorophenoxy)-2,3-dimethyl-quinoline] | 167 to 169 |  |  |  |  | 
COc1ccc2nc(C)c(C)c(OC(C)=O)c2c1 [JP 2633377 Compund No. 46] |  | 0 | 10 | 0 | 0 | 0
CC(=O)Oc1c(C)c(C)nc2ccc(Oc3ccccc3)cc12 [WO 98055460 Compund No. 136] |  | 0 | 0 | 0 | 0 | 0
CC(=O)Oc1c(C)c(C)nc2cc(Cl)c(Oc3ccc(Cl)cc3)cc12 [Compound No. 22, 4-acetoxy-7-chloro-6-(4-chlorophenoxy)-2,3-dimethyl-quinoline] | 160 to 162 |  |  |  |  | 
